Some targets named below: D(3) dopamine receptor (Homo sapiens, UniProt P35462); Histamine H3 receptor (Homo sapiens, UniProt Q9Y5N1); Mu-type opioid receptor (Homo sapiens, UniProt P35372).
Experiment [1] deals with T1, Alpha-2A adrenergic receptor (Homo sapiens, UniProt P08913).
T1 sequence (P08913 whole entry): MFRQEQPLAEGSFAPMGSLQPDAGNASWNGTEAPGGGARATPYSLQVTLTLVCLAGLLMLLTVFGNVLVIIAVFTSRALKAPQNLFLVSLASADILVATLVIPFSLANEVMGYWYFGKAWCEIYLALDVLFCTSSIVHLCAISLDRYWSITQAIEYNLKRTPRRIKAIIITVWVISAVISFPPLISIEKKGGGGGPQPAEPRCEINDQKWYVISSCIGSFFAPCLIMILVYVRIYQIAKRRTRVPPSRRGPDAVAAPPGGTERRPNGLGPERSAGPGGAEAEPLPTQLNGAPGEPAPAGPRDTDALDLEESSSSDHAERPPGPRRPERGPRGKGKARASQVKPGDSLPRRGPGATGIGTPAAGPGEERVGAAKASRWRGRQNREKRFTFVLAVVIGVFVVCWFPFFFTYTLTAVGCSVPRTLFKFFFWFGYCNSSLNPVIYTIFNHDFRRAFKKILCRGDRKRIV

In experiment [2] the target is T2, Muscarinic acetylcholine receptor M2 (Homo sapiens, UniProt P08172).
T2 sequence (P08172 whole entry): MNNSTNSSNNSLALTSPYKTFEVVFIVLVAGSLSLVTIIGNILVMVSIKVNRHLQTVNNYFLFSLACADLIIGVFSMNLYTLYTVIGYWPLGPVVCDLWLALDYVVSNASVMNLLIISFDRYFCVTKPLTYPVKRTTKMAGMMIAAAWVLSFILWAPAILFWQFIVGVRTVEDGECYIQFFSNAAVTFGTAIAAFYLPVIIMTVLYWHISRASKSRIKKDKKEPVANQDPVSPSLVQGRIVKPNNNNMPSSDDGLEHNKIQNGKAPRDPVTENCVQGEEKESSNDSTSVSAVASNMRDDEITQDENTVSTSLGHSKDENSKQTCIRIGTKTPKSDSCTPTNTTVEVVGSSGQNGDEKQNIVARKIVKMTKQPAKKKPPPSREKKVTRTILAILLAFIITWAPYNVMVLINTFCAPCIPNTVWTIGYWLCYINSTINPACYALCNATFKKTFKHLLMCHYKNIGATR

The target of the next experiment is T3, Estrogen receptor (Homo sapiens, UniProt P03372).
T3 sequence (P03372 whole entry): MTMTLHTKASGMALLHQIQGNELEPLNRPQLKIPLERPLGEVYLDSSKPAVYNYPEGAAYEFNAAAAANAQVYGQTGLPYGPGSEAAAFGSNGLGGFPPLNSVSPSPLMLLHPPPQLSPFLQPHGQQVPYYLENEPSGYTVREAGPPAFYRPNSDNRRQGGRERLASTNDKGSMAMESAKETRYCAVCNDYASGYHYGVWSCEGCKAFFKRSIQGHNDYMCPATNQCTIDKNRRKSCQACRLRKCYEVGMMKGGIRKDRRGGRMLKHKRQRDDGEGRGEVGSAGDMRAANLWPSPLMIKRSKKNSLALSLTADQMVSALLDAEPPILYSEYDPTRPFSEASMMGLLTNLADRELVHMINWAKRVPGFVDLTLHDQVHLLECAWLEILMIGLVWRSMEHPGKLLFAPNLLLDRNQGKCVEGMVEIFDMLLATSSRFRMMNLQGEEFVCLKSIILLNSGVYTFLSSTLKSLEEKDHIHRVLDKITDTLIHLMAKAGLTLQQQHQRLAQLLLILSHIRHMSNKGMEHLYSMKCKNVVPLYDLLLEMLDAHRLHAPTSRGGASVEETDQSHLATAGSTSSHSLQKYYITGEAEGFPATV

Experiment [3] addresses 3',5'-cyclic-AMP phosphodiesterase 4A (Homo sapiens, UniProt P27815). The experiment is classed as functional.
Experiment [4] deals with Sodium-dependent serotonin transporter (Homo sapiens, UniProt P31645).
Chain of Sodium-dependent serotonin transporter (P31645 whole entry): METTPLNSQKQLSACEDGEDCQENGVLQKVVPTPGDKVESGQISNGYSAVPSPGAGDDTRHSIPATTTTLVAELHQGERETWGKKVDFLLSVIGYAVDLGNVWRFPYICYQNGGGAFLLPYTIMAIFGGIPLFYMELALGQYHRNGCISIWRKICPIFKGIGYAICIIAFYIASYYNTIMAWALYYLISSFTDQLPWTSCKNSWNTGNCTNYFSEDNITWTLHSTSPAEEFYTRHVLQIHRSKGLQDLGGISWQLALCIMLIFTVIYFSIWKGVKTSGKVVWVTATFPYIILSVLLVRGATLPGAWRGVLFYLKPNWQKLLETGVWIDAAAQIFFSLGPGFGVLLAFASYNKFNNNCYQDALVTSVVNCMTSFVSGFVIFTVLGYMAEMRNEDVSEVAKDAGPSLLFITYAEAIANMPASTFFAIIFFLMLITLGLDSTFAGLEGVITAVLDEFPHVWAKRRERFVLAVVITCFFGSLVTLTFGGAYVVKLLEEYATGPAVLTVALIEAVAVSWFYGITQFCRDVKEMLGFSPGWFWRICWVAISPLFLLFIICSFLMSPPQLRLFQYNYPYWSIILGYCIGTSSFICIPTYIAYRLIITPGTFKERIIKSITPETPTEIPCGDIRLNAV
Experiment [5] addresses T4, Alpha-1A adrenergic receptor (Homo sapiens, UniProt P35348).
T4 sequence (P35348 whole entry): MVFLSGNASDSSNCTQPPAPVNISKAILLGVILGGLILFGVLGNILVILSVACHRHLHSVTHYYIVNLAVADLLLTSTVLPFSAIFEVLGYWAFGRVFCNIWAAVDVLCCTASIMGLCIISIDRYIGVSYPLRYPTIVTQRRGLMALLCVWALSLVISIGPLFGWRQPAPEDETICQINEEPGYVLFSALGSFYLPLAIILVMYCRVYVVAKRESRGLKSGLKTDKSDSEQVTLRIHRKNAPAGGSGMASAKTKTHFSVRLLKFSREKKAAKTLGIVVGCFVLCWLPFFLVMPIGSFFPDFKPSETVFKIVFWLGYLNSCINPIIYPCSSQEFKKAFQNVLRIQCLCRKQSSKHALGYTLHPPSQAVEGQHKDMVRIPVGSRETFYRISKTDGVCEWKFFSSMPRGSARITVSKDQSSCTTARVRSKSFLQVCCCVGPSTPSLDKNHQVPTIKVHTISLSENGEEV
The experiment is classed as functional, cell-based.

In experiment [6] the target is T4, Alpha-1A adrenergic receptor. The experiment is classed as functional, cell-based. The source holds these as a separate data set.
In experiment [7] the target is Voltage-gated inwardly rectifying potassium channel KCNH2 (Homo sapiens, UniProt Q12809). The experiment is classed as functional. The note with it: read-out: AC50.
Chain of Voltage-gated inwardly rectifying potassium channel KCNH2 (Q12809 whole entry): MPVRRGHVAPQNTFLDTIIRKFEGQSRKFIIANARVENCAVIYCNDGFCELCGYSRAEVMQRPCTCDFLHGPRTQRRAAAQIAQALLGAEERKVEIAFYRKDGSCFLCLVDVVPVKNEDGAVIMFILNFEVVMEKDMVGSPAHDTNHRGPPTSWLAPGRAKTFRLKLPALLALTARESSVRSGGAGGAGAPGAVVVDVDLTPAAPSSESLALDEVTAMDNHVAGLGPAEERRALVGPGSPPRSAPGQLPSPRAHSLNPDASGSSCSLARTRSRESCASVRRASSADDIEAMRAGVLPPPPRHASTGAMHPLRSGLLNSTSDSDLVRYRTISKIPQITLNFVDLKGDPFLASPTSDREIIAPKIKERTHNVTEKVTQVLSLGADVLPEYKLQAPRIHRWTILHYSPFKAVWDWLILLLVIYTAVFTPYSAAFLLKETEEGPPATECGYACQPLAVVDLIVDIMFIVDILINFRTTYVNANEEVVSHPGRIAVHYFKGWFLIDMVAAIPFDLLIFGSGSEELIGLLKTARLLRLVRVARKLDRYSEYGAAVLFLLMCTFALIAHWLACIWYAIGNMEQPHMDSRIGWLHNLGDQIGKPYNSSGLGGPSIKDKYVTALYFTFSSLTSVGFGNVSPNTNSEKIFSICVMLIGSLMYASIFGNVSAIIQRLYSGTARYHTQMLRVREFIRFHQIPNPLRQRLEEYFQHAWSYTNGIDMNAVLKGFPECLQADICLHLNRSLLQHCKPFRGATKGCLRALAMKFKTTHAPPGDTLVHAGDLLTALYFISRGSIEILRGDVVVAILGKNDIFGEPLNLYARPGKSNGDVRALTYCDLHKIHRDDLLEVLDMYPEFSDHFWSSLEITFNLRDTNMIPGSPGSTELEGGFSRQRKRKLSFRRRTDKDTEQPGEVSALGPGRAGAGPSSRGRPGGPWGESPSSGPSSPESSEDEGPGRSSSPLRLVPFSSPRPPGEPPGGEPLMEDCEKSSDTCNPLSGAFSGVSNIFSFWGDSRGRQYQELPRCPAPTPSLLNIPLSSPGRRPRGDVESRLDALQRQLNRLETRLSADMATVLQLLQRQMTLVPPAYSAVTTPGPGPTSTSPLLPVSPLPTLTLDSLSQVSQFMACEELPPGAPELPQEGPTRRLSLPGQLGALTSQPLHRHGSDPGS
Further: assay procedure not described here.

Chain of 3',5'-cyclic-AMP phosphodiesterase 4A (P27815 whole entry): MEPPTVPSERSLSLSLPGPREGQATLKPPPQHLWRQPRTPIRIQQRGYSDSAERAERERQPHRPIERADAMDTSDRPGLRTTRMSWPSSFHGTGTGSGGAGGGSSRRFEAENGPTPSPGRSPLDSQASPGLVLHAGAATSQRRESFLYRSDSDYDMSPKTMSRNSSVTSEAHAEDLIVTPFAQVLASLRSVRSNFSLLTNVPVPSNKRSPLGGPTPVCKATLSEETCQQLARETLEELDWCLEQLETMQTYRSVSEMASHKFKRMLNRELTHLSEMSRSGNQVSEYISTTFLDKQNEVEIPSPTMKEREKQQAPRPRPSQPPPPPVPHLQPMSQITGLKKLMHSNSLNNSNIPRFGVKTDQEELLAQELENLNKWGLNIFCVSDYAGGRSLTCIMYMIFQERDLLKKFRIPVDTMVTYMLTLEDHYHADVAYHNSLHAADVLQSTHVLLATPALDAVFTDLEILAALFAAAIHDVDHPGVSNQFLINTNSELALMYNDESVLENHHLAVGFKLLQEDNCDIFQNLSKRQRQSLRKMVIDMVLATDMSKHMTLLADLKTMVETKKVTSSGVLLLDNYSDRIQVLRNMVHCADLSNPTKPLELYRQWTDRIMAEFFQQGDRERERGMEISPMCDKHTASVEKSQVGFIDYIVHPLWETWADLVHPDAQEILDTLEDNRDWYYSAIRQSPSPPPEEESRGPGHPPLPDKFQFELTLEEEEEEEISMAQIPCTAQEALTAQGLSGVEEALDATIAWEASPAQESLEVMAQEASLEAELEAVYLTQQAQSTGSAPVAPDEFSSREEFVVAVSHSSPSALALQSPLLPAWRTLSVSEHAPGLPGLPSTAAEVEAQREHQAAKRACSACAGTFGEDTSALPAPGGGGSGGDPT
Chain of Mu-type opioid receptor (P35372 whole entry): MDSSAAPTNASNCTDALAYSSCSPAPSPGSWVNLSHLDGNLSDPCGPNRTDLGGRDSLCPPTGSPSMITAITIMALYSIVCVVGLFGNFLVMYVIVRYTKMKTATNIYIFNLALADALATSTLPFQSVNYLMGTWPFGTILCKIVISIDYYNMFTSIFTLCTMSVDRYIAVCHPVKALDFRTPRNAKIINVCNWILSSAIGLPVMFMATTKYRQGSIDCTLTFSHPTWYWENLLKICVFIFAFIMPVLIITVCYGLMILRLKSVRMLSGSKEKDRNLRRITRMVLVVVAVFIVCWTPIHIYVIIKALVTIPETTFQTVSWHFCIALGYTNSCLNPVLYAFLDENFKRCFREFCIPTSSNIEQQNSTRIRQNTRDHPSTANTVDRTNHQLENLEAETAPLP
Chain of Histamine H3 receptor (Q9Y5N1 whole entry): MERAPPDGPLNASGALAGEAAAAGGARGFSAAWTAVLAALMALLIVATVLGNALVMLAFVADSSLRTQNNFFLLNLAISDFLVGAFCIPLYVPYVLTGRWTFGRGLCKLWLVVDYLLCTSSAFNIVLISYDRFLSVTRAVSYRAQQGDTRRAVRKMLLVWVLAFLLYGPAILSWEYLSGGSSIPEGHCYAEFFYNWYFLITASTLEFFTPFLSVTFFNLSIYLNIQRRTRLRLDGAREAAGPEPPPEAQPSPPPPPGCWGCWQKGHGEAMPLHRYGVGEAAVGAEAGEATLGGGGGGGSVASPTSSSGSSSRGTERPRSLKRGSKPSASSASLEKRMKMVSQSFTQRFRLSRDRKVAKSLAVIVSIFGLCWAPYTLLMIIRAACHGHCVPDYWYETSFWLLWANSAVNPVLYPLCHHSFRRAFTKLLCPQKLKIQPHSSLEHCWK
Chain of D(3) dopamine receptor (P35462 whole entry): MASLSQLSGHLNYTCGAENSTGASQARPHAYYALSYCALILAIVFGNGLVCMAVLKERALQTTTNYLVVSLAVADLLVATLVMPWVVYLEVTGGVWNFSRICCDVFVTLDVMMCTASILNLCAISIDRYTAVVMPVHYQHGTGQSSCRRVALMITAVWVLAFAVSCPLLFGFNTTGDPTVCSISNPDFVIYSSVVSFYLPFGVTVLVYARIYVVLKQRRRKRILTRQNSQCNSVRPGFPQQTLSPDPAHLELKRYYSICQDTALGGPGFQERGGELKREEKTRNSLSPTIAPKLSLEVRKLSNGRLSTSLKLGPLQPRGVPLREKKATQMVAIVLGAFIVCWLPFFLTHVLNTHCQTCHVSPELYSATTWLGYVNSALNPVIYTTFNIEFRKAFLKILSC

With `C[C@@H](O)[C@H]1C(=O)N2C(C(=O)O)=C(S[C@@H]3CN[C@H](C(=O)Nc4cccc(C(=O)O)c4)C3)[C@H](C)[C@H]12`, the AC50 (in general, the concentration giving half of the maximal activity seen) in experiment [1] was above 30 µM; in experiment [2] it was above 30 µM; on D(3) dopamine receptor it was above 30 µM; at Estrogen receptor, 15.9 µM; on Histamine H3 receptor, above 30 µM; on Mu-type opioid receptor it was above 30 µM. Also, the results for the AC50 in experiment [3] and in experiment [4] were 1.62 µM and above 30 µM, respectively.

As for `CC(=O)OC1CN2CCC1CC2` (stereo unspecified) [ACECLIDINE], the AC50 (in experiment [1]; on D(3) dopamine receptor; at Estrogen receptor; on Histamine H3 receptor; on Mu-type opioid receptor; in experiment [3]) was above 30 µM throughout. Also, in experiment [4], the AC50 is above 30 µM.

With `CC1(C)S[C@@H]2[C@H](NC(=O)[C@H](NC(=O)c3cnc4cccnc4c3O)c3ccccc3)C(=O)N2[C@H]1C(=O)O` [APALCILLIN], the AC50 (in experiment [5]; in experiment [6]; in experiment [1]; in [2]; on D(3) dopamine receptor; on Estrogen receptor) was above 30 µM each time. Moreover, the AC50 (at Histamine H3 receptor; on Mu-type opioid receptor; in experiment [3]; in [4]) was above 30 µM each time.

For the compound `Cn1c(CCCC(=O)O)nc2cc(N(CCCl)CCCl)ccc21` [BENDAMUSTINE], the AC50 (in experiment [5]; in experiment [6]; in experiment [1]; in experiment [2]; on D(3) dopamine receptor; at Estrogen receptor) was above 30 µM throughout. The AC50 (at Histamine H3 receptor; on Mu-type opioid receptor; in experiment [3]; in experiment [4]) was above 30 µM each time.

For the compound `CC1(C)C[C@@H]1C(=O)N/C(=C\CCCCSC[C@H](N)C(=O)O)C(=O)O` [CILASTATIN], the AC50 (in [5]; in experiment [6]; in experiment [1]; in [2]; at D(3) dopamine receptor; at Histamine H3 receptor) was above 30 µM each time. For the same compound, the AC50 (in experiment [7]; at Mu-type opioid receptor; in [3]; in experiment [4]) was above 30 µM each time.

Regarding `COc1c(OCCCN2CCOCC2)ccc2c1N=C(NC(=O)c1cnc(N)nc1)N1CCN=C21` [COPANLISIB], the AC50 is above 30 µM in experiment [5]; above 30 µM in experiment [6]; above 30 µM in [1]; 5.64 µM in [2]; above 30 µM on D(3) dopamine receptor; above 30 µM on Estrogen receptor. Besides, the AC50 (on Histamine H3 receptor; on Mu-type opioid receptor; in experiment [3]; in experiment [4]) was above 30 µM throughout.

On to `CC(NCCC(c1ccccc1)c1ccccc1)c1ccccc1` (stereo unspecified) [FENDILINE], for which the AC50 in [5] is 25.8 µM; in experiment [1] it was 5.89 µM; in experiment [2] it was 6.17 µM; at D(3) dopamine receptor, 9.87 µM; on Estrogen receptor, above 30 µM; at Histamine H3 receptor it was above 30 µM. For the same compound, the half-maximal activity concentration (AC50) was 1.3 µM in experiment [7], 0.721 µM on Mu-type opioid receptor, above 30 µM in [3] and 7.94 µM in experiment [4].

With `CC(C)Cc1ccc(C(C)C(=O)OCc2ccccn2)cc1` (stereo unspecified) [IBUPROFEN PICONOL], the AC50 (in experiment [5]; in [6]; in experiment [1]; in experiment [2]; on Estrogen receptor; at Histamine H3 receptor) was above 30 µM each time. Also, the AC50 (in experiment [7]; at Mu-type opioid receptor; in experiment [3]; in experiment [4]) was above 30 µM in each case.

With `CC(C)NC[C@H](O)COc1ccc(CCOCC2CC2)cc1` [LEVOBETAXOLOL], the AC50 (in experiment [5]; in experiment [6]; in experiment [1]; in experiment [2]; on D(3) dopamine receptor; at Histamine H3 receptor) was above 30 µM throughout. Besides, the AC50 (in experiment [7]; at Mu-type opioid receptor; in experiment [3]; in [4]) was above 30 µM throughout.

As to `Cc1cccc(C)c1NC(=O)CN(CC(=O)O)CC(=O)O` [LIDOFENIN], the AC50 (in [5]; in experiment [6]; in [1]; in experiment [2]; at D(3) dopamine receptor; at Histamine H3 receptor) was above 30 µM throughout. Besides, the AC50 (in [7]; at Mu-type opioid receptor; in [3]; in [4]) was above 30 µM each time.

Turning to `CSCC[C@H](N)C(=O)O` [METHIONINE], the AC50 (in experiment [1]; in experiment [2]; at D(3) dopamine receptor; at Estrogen receptor; at Histamine H3 receptor; at Mu-type opioid receptor) was above 30 µM each time. Also, the AC50 in experiment [3] and in experiment [4] was above 30 µM in each case.

Regarding `CC(=O)OCC(=O)[C@@]1(O)CC[C@H]2[C@@H]3C[C@H](C)C4=CC(=O)C=C[C@]4(C)[C@H]3[C@@H](O)C[C@@]21C` [METHYLPREDNISOLONE ACETATE], the AC50 (in experiment [5]; in experiment [6]; in experiment [1]; in experiment [2]; at D(3) dopamine receptor; on Estrogen receptor) was above 30 µM throughout. Also, the AC50 (on Histamine H3 receptor; on Mu-type opioid receptor; in [3]; in experiment [4]) was above 30 µM each time.

Regarding `OC(CN1CCCCC1)c1cc(-c2ccccc2)on1` (stereo unspecified) [PERISOXAL], the AC50 in experiment [1] is above 30 µM; in [2], 16.9 µM; on D(3) dopamine receptor it was 15.2 µM; on Estrogen receptor it was above 30 µM; at Histamine H3 receptor, 15.8 µM; at Mu-type opioid receptor it was 27.4 µM. In addition, the AC50 in [3] and in experiment [4] was above 30 µM throughout.

On to `Cc1ncc(CO)c(CO)c1O` [PYRIDOXINE], for which the AC50 (in experiment [5]; in experiment [6]; in experiment [1]; in experiment [2]; at D(3) dopamine receptor; at Histamine H3 receptor) was above 30 µM each time. Moreover, the AC50 (in [7]; on Mu-type opioid receptor; in experiment [3]; in [4]) was above 30 µM each time.

These data come from ChEMBL document CHEMBL5291721, “A preclinical secondary pharmacology resource illuminates target-adverse drug reaction associations of marketed drugs” (Nat Commun, 2023).
